# Like-named read-outs stand apart in the source and are kept apart here.
# Legend:
# [1] = simple acute toxicity test, intravenous injection to mouse; type: in vivo, ddy male mouse; settings: mouse, in vivo, observed 7 days, 3 mice, read-out: Final death rate (converted)
# Method: (§1) Simple acute toxicity test of the agent to be tested due to intravenous injection to mouse was effected as shown below.
# (§2) • (1) Agents to be tested Lithium salt, potassium salt, barium salt and magnesium salt of N-acetylneuraminic acid (all available from MECT Corporation) were used. • (2) Animal for experiment ddy male mouse Weight at initial of the test : 17.7 to 21.1 g Animal number per one level : 3 • (3) Room temperature : 23 ± 1 °C, Humidity : 55 ± 7 % • (4) Administration route : intravenous • (5) Administration method and amount thereof The above agent to be tested was dissolved with a physiological saline solution, and that which is prepared so as to become the administration amount of 0.2 ml per 20 g of mouse weight was injected into a tail vein. An administered amount was made to three levels of 500, 1000 and 2000 mg/kg. • (6) Observation of general condition and death condition Observations of the general condition and presence or absence of death were conducted from immediately after administration to after 7 days.
# [2] = system: ddy male mouse; assay: as above; type: in vivo; settings: 3 mice; for Final death rate: observed 7 days
# Method: as §1, §2
# [3] = system: passive Arthus reaction; assay: passive Arthus reaction (bleeding of skin); type: in vivo, Male Hartley guinea pig
# Method: Male Hartley guinea pig weighing 300 to 400 g was used.
# According to the conventional method, Anti-OA (rabbit) was prepared. That is, by using New Zealand strain rabbits having a weight of 2.0 to 2.2 kg, 1 ml of an emulsion comprising 20 mg of OA and Freund complete adjuvant (available from DIFCO LABORATORIES) was subcutaneously injected to back side portion and active sensitization was effected for total 4 times for every two weeks.
# After two weeks from the final sensitizing date, blood was gathered from common carotid artery and after separation of antiserum, it was stored under freezing at -20°C by the usage for experiment.
# The passive Arthus reaction was effected according to the method of Katayama et al. [S. Katayama, et al., Arzneim.-Forsh., vol. 31, p. […] However, in order to cause sufficient reaction, change were added to a cocentration of OA solution. That is, sensitization was effected by intravenously injecting 1 ml of antiserum stock solution and 30 minutes after, the reaction was caused by intradermally injecting respective 0.05 ml of OA solutions, each containing 0.025 mg and 0.05 mg of OA respectively, to each one portion of an abdominal part and total two portions of guinea pig at which hair was cut at the day before. At this time, a physiological saline solution was intradermal injected simultaneously in the same manner as a blank. […] And, the value was calibrated by the blank to be made as the experimental results.
# 1, 5 or 20 mg/kg of sodium N-acetylneuraminate, or physiological saline solution (1 mg/kg) as a control was intravenously injected before 30 minutes of antigen-challenge or immediately after sensitization.
# Also, Student's t-test was employed for significant test and p < 0.05 was made as statistically significant.
# [4] = system: ICR mouse; assay: acute toxicity test, mouse; type: in vivo; settings: female, 14 days observed
# Source text: (§3) Acute toxicity tests of sodium N-acetylneuraminate against mouse, rat and guinea pig due to oral, subcutaneous injection, intraperitoneal injection, intravenous injection and inhalation were effected as shown below. • (1) Animals to be tested ICR mouse 6 weeks old SD rat 6 weeks old Hartley guinea pig 6 weeks old • (2) Chemicals concentration 20 % (w/v) dissolved in distilled water • (3) Animal number per one level Ten • (4) Terms observed 14 days • (5) Calculation method of LD₅₀ Probit method
# [5] = acute toxicity test, mouse; type: in vivo; settings: in vivo, male, 14 days observed, read-out: LD₅₀
# Source text: as §3
# [6] = acute toxicity test, guinea pig; settings: in vivo, iv, 14 days observed, read-out: LD₅₀
# Source text: as §3
# [7] = system: SD rat; assay: acute toxicity test, rat; type: in vivo
# Source text: as §3
# (§4) Inhalation is effected by exposing powder to be tested for one hour.
# [8] = acute toxicity test, rat; type: in vivo; settings: in vivo, male, 14 days observed, read-out: LD₅₀
# Source text: as §3, §4
structure (smiles),measurement,setting,value
CC(=O)NC1C(O)CC(O)(C(=O)O)OC1C(O)C(O)CO (stereo not shown) [Barium N-acetylneuraminate],mortality at 168 h,[1]; 500 mg/kg intravenous,100%
CC(=O)NC1C(O)CC(O)(C(=O)O)OC1C(O)C(O)CO (stereo not shown) [Magnesium N-acetylneuraminate],mortality at 168 h,[1]; 1000 mg/kg intravenous,100%
same,mortality at 168 h,[1]; 2000 mg/kg intravenous,100%
CC(=O)N[C@H]1[C@H]([C@H](O)[C@H](O)CO)OC(O)(C(=O)[O-])C[C@@H]1O.[Li+] (stereo partly shown) [Lithium N-acetylneuraminate],Died number with a lapse of time,"[2]; 500 mg/kg intravenous, 1 hrs",0
same,Died number with a lapse of time,"[2]; 500 mg/kg intravenous, 3 hrs",0
same,Died number with a lapse of time,"[2]; 500 mg/kg intravenous, 6 hrs",0
same,Died number with a lapse of time,"[2]; 500 mg/kg intravenous, 24 hrs",0
same,Died number with a lapse of time,"[2]; 500 mg/kg intravenous, 2 days",0
same,Died number with a lapse of time,"[2]; 500 mg/kg intravenous, 3 days",0
same,Died number with a lapse of time,"[2]; 500 mg/kg intravenous, 4 days",0
same,Died number with a lapse of time,"[2]; 500 mg/kg intravenous, 5 days",0
same,Died number with a lapse of time,"[2]; 500 mg/kg intravenous, 6 days",0
same,Died number with a lapse of time,"[2]; 500 mg/kg intravenous, 7 days",0
same,Final death rate,[2]; 500 mg/kg intravenous,0/3
same,Died number with a lapse of time,"[2]; 1000 mg/kg intravenous, 1 hrs",0
same,Died number with a lapse of time,"[2]; 1000 mg/kg intravenous, 3 hrs",0
same,Died number with a lapse of time,"[2]; 1000 mg/kg intravenous, 6 hrs",0
same,Died number with a lapse of time,"[2]; 1000 mg/kg intravenous, 24 hrs",0
same,Died number with a lapse of time,"[2]; 1000 mg/kg intravenous, 2 days",0
same,Died number with a lapse of time,"[2]; 1000 mg/kg intravenous, 3 days",0
same,Died number with a lapse of time,"[2]; 1000 mg/kg intravenous, 4 days",0
same,Died number with a lapse of time,"[2]; 1000 mg/kg intravenous, 5 days",0
same,Died number with a lapse of time,"[2]; 1000 mg/kg intravenous, 6 days",0
same,Died number with a lapse of time,"[2]; 1000 mg/kg intravenous, 7 days",0
same,Final death rate,[2]; 1000 mg/kg intravenous,0/3
same,Died number with a lapse of time,"[2]; 2000 mg/kg intravenous, 1 hrs",0
same,Died number with a lapse of time,"[2]; 2000 mg/kg intravenous, 3 hrs",0
same,Died number with a lapse of time,"[2]; 2000 mg/kg intravenous, 6 hrs",0
same,Died number with a lapse of time,"[2]; 2000 mg/kg intravenous, 24 hrs",0
same,Died number with a lapse of time,"[2]; 2000 mg/kg intravenous, 2 days",0
same,Died number with a lapse of time,"[2]; 2000 mg/kg intravenous, 3 days",0
same,Died number with a lapse of time,"[2]; 2000 mg/kg intravenous, 4 days",0
same,Died number with a lapse of time,"[2]; 2000 mg/kg intravenous, 5 days",0
same,Died number with a lapse of time,"[2]; 2000 mg/kg intravenous, 6 days",0
same,Died number with a lapse of time,"[2]; 2000 mg/kg intravenous, 7 days",0
same,Final death rate,[2]; 2000 mg/kg intravenous,0/3
CC(=O)N[C@H]1[C@H]([C@H](O)[C@H](O)CO)OC(O)(C(=O)O)C[C@@H]1O (stereo partly shown) [N-acetylneuraminic acid],inhibiting effect to Arthus reaction,"[3]; general statement, in vivo",has inhibiting effect to Arthus reaction
CC(=O)N[C@H]1[C@H]([C@H](O)[C@H](O)CO)OC(O)(C(=O)[O-])C[C@@H]1O.[Na+] (stereo partly shown),bleeding of skin,"[3]; 20 mg/kg intravenously, guinea pig",remarkable
same,bleeding of skin,"[3]; 1, 5 or 20 mg/kg intravenously, 30 minutes before antigen challenge, guinea pig, Fig. 1 and Fig. 2",depressed depending on an amount to be used
same,inhibiting effect on bleeding of skin,"[3]; 24 hours after antigen challenge, guinea pig",continued even after 24 hours from antigen challenge
same,LD₅₀,[4]; i.p.,">5,000 mg/kg"
same,LD₅₀,[4]; i.v.,">5,000 mg/kg"
same,LD₅₀,[4]; p.o.,">5,000 mg/kg"
same,LD₅₀,[4]; s.c.,">5,000 mg/kg"
same,LD50 at 336 h,"[5]; ip, i.p.",> 5000 mg/kg
same,LD50 at 336 h,"[5]; iv, i.v.",> 5000 mg/kg
same,LD50 at 336 h,"[5]; po, p.o.",> 5000 mg/kg
same,LD50 at 336 h,"[5]; sc, s.c.",> 5000 mg/kg
same,LD50 at 336 h,[6],> 5000 mg/kg
same,LD₅₀,"[7]; female, i.p., 14 days observed",">5,000 mg/kg"
same,LD₅₀,"[7]; female, i.v., 14 days observed",">5,000 mg/kg"
same,LD₅₀,"[7]; female, inhalation, powder exposure for one hour",">4,000 mg/m³"
same,LD₅₀,"[7]; female, p.o., 14 days observed",">5,000 mg/kg"
same,LD₅₀,"[7]; female, s.c., 14 days observed",">5,000 mg/kg"
same,LD₅₀,"[7]; male, inhalation, powder exposure for one hour",">4,000 mg/m³"
same,LD50 at 336 h,"[8]; ip, i.p.",> 5000 mg/kg
same,LD50 at 336 h,"[8]; iv, i.v.",> 5000 mg/kg
same,LD50 at 336 h,"[8]; po, p.o.",> 5000 mg/kg
same,LD50 at 336 h,"[8]; sc, s.c.",> 5000 mg/kg
CC(=O)N[C@H]1[C@H]([C@H](O)[C@H](O)CO)OC(O)(C(=O)[O-])C[C@@H]1O.[K+] (stereo partly shown) [Potassium N-acetylneuraminate],mortality at 168 h,[1]; 1000 mg/kg intravenous,100%
same,mortality at 168 h,[1]; 2000 mg/kg intravenous,100%
same,Died number with a lapse of time,"[2]; 500 mg/kg intravenous, 1 hrs",0
same,Died number with a lapse of time,"[2]; 500 mg/kg intravenous, 3 hrs",0
same,Died number with a lapse of time,"[2]; 500 mg/kg intravenous, 6 hrs",0
same,Died number with a lapse of time,"[2]; 500 mg/kg intravenous, 24 hrs",0
same,Died number with a lapse of time,"[2]; 500 mg/kg intravenous, 2 days",0
same,Died number with a lapse of time,"[2]; 500 mg/kg intravenous, 3 days",0
same,Died number with a lapse of time,"[2]; 500 mg/kg intravenous, 4 days",0
same,Died number with a lapse of time,"[2]; 500 mg/kg intravenous, 5 days",0
same,Died number with a lapse of time,"[2]; 500 mg/kg intravenous, 6 days",0
same,Died number with a lapse of time,"[2]; 500 mg/kg intravenous, 7 days",0
same,Final death rate,[2]; 500 mg/kg intravenous,0/3
same,Died number with a lapse of time,"[2]; 1000 mg/kg intravenous, 1 hrs",3
same,Died number with a lapse of time,"[2]; 1000 mg/kg intravenous, 3 hrs",0
same,Died number with a lapse of time,"[2]; 1000 mg/kg intravenous, 6 hrs",0
same,Died number with a lapse of time,"[2]; 1000 mg/kg intravenous, 24 hrs",0
same,Died number with a lapse of time,"[2]; 1000 mg/kg intravenous, 2 days",0
same,Died number with a lapse of time,"[2]; 1000 mg/kg intravenous, 3 days",0
same,Died number with a lapse of time,"[2]; 1000 mg/kg intravenous, 4 days",0
same,Died number with a lapse of time,"[2]; 1000 mg/kg intravenous, 5 days",0
same,Died number with a lapse of time,"[2]; 1000 mg/kg intravenous, 6 days",0
same,Died number with a lapse of time,"[2]; 1000 mg/kg intravenous, 7 days",0
same,Final death rate,[2]; 1000 mg/kg intravenous,3/3
same,Died number with a lapse of time,"[2]; 2000 mg/kg intravenous, 1 hrs",3
same,Died number with a lapse of time,"[2]; 2000 mg/kg intravenous, 3 hrs",0
same,Died number with a lapse of time,"[2]; 2000 mg/kg intravenous, 6 hrs",0
same,Died number with a lapse of time,"[2]; 2000 mg/kg intravenous, 24 hrs",0
same,Died number with a lapse of time,"[2]; 2000 mg/kg intravenous, 2 days",0
same,Died number with a lapse of time,"[2]; 2000 mg/kg intravenous, 3 days",0
same,Died number with a lapse of time,"[2]; 2000 mg/kg intravenous, 4 days",0
same,Died number with a lapse of time,"[2]; 2000 mg/kg intravenous, 5 days",0
same,Died number with a lapse of time,"[2]; 2000 mg/kg intravenous, 6 days",0
same,Died number with a lapse of time,"[2]; 2000 mg/kg intravenous, 7 days",0
same,Final death rate,[2]; 2000 mg/kg intravenous,3/3

# Reference: patent EP0386657A1, “Preparation for treating systemic lupus erythematosus” (MECT CORPORATION, priority 1989, dated 1990)
